Marks after values point to notes of the source that are not given here.
What was measured:
[1] = DPPH radical scavenging activity; format: biochemical; settings: mean ± SD; for DPPH Inhibition %: 1 mg/mL
Experimental: For all the compounds, 0.750 mL of a DMSO-MeOH solution mixed with 1.5 mL of DPPH solution (0.004%) in MeOH was analysed. The samples were kept in the dark at room temperature for 30 min and then analysed with a spectrophotometer by reading the absorbance at 517 nm (lambda max of the absorption spectrum of the DPPH radical). Equation (5) was used to obtain the percentage inhibition (%) of the radical: DPPH radical-scavenging capacity (%) = [1 − (A1 − A2)/A0] × 100%(5) where A2 is the blank (MeOH), and A1 and A0 are, respectively, the recorded absorbances of the sample and control (0.750 MeOH and 1.5 mL DPPH solution), directly proportional to the concentration of residual DPPH. An initial screening was performed by testing all compounds at a concentration of 1 mg/mL (Trolox® was used as the standard); subsequently, compounds showing >90% radical inhibition were further tested to calculate their IC50 value (expressed in µg/mL). Ferulic acid was used as positive control. A linear regression was performed to calculate the sample concentration able to eliminate 50% of DPPH free radicals.

[2] = test system: human melanoma Colo38 cells; assay: Cell growth inhibition assay, Colo38; format: cell-based; settings: for IC50: Homo sapiens, 24 h incubation, mean ± SD; for SI (selectivity index): IC50 HaCat / IC50 Colo38
Experimental: (§1) Cell growth inhibition analyses were performed on human melanoma Colo38 cells and skin HaCat keratinocytes. Human melanoma Colo38 cells were kindly given by Dr. Patrizio Giacomini (Laboratory of Immunology, Regina Elena Institute, Rome, Italy). HaCat cells were obtained from Istituto Zooprofilattico Sperimentale della Lombardia e dell’Emilia-Romagna, Brescia, Italy. Cells were seeded at 40,000 cells/mL and 25,000 cells/mL, respectively. Colo38 cells were maintained in RPMI 1640, supplemented with 10% foetal bovine serum (FBS), penicillin (100 Units/mL), and streptomycin (100 µg/mL). HaCat cells were maintained in DMEM, supplemented with 10% fatal bovine serum (FBS), penicillin (100 Units/mL), streptomycin (100 µg/mL) and glutamine (2 mM); the incubation was performed at 37 °C in a 5% CO2 atmosphere. Compounds were dissolved in DMSO to obtain 50 mM stock solutions and diluted before cell treatment in MeOH. The tested compounds were added at serial dilutions to the cell cultures (from 0.1 to 100 µM) and incubated for 24 h further. Cells were then harvested, suspended in physiological solution, and counted with a Z2 Coulter Counter (Coulter Electronics, Hialeah, FL, USA). The number of cells/mL and the IC50 values were determined when untreated cells were in the log phase of cell growth. Samples of vehicles and untreated cells were included in each plate. Cisplatin was used as positive control for the HaCat cells, while N1-(4-arylidene)-1H-(2-OH-4-N(Et)2-phenyl)-[d]imidazole-2-carbohydrazide was used as positive control for the Colo38 cell line.

[3] = test system: skin HaCat keratinocytes; assay: Cell growth inhibition assay, HaCat; format: cell-based, human; settings: Homo sapiens, HaCaT; 24 h incubation; mean ± SD
Experimental: as §1

[4] = UV spectrophotometric analysis of compounds in solution; format: physicochemical; settings: for ʎmax: 10 µg/mL solution, DMSO diluted in MeOH; for Ɛ (molar extinction coefficient): at ʎmax, Lambert–Beer equation
Experimental: The synthesized compounds were solubilised in DMSO and diluted in MeOH, and the absorbance of the 10 µg/mL solution was measured between 290–400 nm with a UV-Vis spectrophotometer (SHIMADZU UV-2600 240 V, 1 cm quartz cell at 1 nm intervals). The absorbance at wavelength λ is related to the transmittance T(λ) via the Equation (1): A(λ) = −Log[T(λ)](1) where T(λ) is the fraction of incident irradiance transmitted by the sample. […]
The molar extinction coefficient was calculated with the absorbance recorded at the ʎmax applying the Lambert–Beer equation.

[5] = Photostability of O/W emulsions under solar simulator; format: physicochemical; settings: for Photostability (classification, threshold 80%): O/W emulsion, solar irradiation; for %UVAPfeff.: residual UVAPF after solar irradiation; for %UVAPfeff. / %SPFeff.: O/W emulsion on PMMA; for %SPFeff.: residual in vitro SPF after solar irradiation
Experimental: Oil-in-water (O/W) emulsions containing individual filters were spread on PMMA sheet and irradiated with a solar simulator by applying different doses of UVA equivalent to an erythema effective radiant exposure of 100 J/m^2. Photostability was assessed by analysing the spectral transmittance, before and after irradiation, of the sunscreen thin film, measured before and after exposure from 290 to 400 nm. The residual percentages of SPF in vitro (%SPFeff.) and UVAPF (%UVAPFeff.) were calculated according to Equations (6) and (7), respectively. When the %SPFeff. and %UVAPFeff. are greater than or equal to 80, according to current regulations, a filter can be considered photostable [37].
To evaluate the effectiveness and safety profile of a sunscreen formulation, it is necessary to provide data on its photostability. Photodegradation data can be obtained by recording the pre- and post-irradiation transmittance spectra of PMMA plates with finger-coat formulations exposed to a dose of UVA capable of causing erythema. This method, established by Garoli et al., is used to determine photostability. The sun protection layer’s transmission in the range of 290–400 nm is recorded before and after exposure to sunlight, following the protocol.
The residual percentages of SPF in vitro (%SPFeff.) and UVAPf (%UVAPfeff.) were calculated using Equations (6) and (7) and are listed in Table 4. A filter can be classified as photostable if the %SPFeff. is greater than or equal to 80, according to regulatory standards. %SPFeff. = in vitro SPFafter/in vitro SPFbefore × 100(6) %UVAPfeff. = UVAPfafter/UVAPfbefore × 100(7) where SPFafter and SPFbefore are the SPF values calculated from the software after and before solar irradiation, and UVAPfafter and UVAPfbefore are the UVAPf values calculated from the software after and before solar irradiation.

SMILES	DPPH Inhibition % [1]	IC50 [2]	SI (selectivity index) [2]	IC50 [3]	ʎmax [4]	Ɛ (molar extinction coefficient) [4]	Photostability (classification, threshold 80%) [5]	%UVAPfeff. [5]	%SPFeff. [5]	DPPH IC50 (sample concentration able to scavenge 50% of the DPPH radical) ([1]; values in brackets)
C(=C\c1nc2ccccc2s1)/c1ccccc1 [BZTst1, (E)-2-styrylbenzo[d]thiazole]	<LOQ ^b	85.6 ± 2.76 µM	>1.17	> 100 µM	335.0 nm	34,075.83 dm^3 mol^−1 cm^−1	cannot be considered photostable	54.38%	99.14%	
Oc1ccc(/C=C/c2nc3ccccc3s2)cc1 [BZTst2, (E)-4-(2-(benzo[d]thiazol-2-yl)vinyl)phenol]	26.70 ± 0.83%	79.8 ± 4.7 µM	1.07	85.8 ± 17.9 µM	354.4 nm	30,835.44 dm^3 mol^−1 cm^−1		95.96%	104.43%	
COc1ccc(/C=C/c2nc3ccccc3s2)cc1 [BZTst3, (E)-2-(4-methoxystyryl)benzo[d]thiazole]	<LOQ ^b	> 100 µM		> 100 µM	351.0 nm	35,125.63 dm^3 mol^−1 cm^−1		152.12%	103.21%	
Oc1ccc(/C=C/c2nc3ccccc3s2)cc1O [BZTst4, (E)-4-(2-(benzo[d]thiazol-2-yl)vinyl)benzene-1,2-diol]	88.54 ± 0.47%	58.1 ± 12.1 µM	1.38	80.2 ± 24.7 µM	363.3 nm	22,070.71 dm^3 mol^−1 cm^−1		101.57%	104.02%	10.46 ± 0.27 µg/mL
COc1ccc(/C=C/c2nc3ccccc3s2)cc1O [BZTst5, (E)-5-(2-(benzo[d]thiazol-2-yl)vinyl)-2-methoxyphenol]	46.88 ± 0.60%	> 100 µM	<1	86 ± 40.7 µM	358.0 nm	22,513.37 dm^3 mol^−1 cm^−1		106.30%	100.00%	
COc1cc(/C=C/c2nc3ccccc3s2)ccc1O [BZTst6, (E)-4-(2-(benzo[d]thiazol-2-yl)vinyl)-2-methoxyphenol]	18.86 ± 0.11 ^c %	71.5 ± 14.2 µM	>1.40	> 100 µM	361.2 nm	16,871.66 dm^3 mol^−1 cm^−1	photostable	80.75%	93.59%	

From PMC11504387, “Synthesis and Biological Activity Assessment of 2-Styrylbenzothiazoles as Potential Multifunctional Therapeutic Agents” (Antioxidants, 2024)
